≈ marks a conversion by molar mass, not a printed value. Counter-ions that a name gives are not always drawn. Like-named read-outs stand apart in the source and are kept apart here. Where only a bound is given, the exact number is not on record here.

These results are taken from patent US5185330A, “Penam derivatives and salts thereof, and antibacterial agent comprising the same” (Toyama Chemical Co., Ltd., priority 1989, dated 1993).

The test system of one experiment is E. coli TK-3. The experiment can be described thus: Antibacterial activity (MIC, agar dilution) against E. coli TK-3*. The class given is cell-based. Particulars: Escherichia coli. As to the method:
(§1) According to Chemotherapy, vol. 29, No. 1, pp. 76-79 (1981), bacterium was cultured in peptone broth manufactured by Eiken Kagaku K.K. at 37° C. for 20 hours to prepare a bacterial solution of 10^8 cells/ml, and one loopful of the bacterial solution was inoculated into Heart Infusion agar medium (manufactured by Eiken Kagaku K.K.) containing a drug, cultured at 37° C. for 20 hours, after which growth of bacterium was observed. The minimum concentration at which the growth of bacterium was prevented was indicated as MIC (μg/ml).
(§2) *means that β-lactamaseproducing bacteria.

Another experiment concerns S. marcescens W-8. Put plainly: Antibacterial activity (MIC, agar dilution) against S. marcescens W-8*. In kind it is cell-based. Particulars: Serratia marcescens. As to the method:
as §1, §2
(In agar dilution, organisms are placed on agar that contains the substance at set levels.)

Setting [1] is: TK3, E. coli TK-3* (β-lactamase-producing bacteria), Heart Infusion agar, 37° C., 20 hours, one loopful of 10^8 cells/ml, read-out: MIC.
[2] abbreviates: W8, S. marcescens W-8* (β-lactamase-producing bacteria), Heart Infusion agar, 37° C., 20 hours, one loopful of 10^8 cells/ml, read-out: MIC.

In the case of `NC(=O)C=CC=NN1CCN([C@]2(C(=O)O)CN3C(=O)[C@@H](NC(=O)C(C(=O)O)c4ccccc4)[C@H]3S2)C1=O` (stereo partly shown) [compound 33], the minimal inhibitory concentration (MIC) was 0.39 µg/mL (≈ 0.735 µM) with E. coli TK-3 (setting [1]) and 0.2 µg/mL (≈ 0.377 µM) in the experiment on S. marcescens W-8 (setting [2]).

Consider `N#CC=CC=NN1CCN([C@]2(C(=O)O)CN3C(=O)[C@@H](NC(=O)C(C(=O)O)c4ccccc4)[C@H]3S2)C1=O` (stereo partly shown) [compound 31], for which the minimal inhibitory concentration (MIC) in the experiment on E. coli TK-3 (setting [1]) is 0.2 µg/mL (≈ 0.39 µM); in the experiment with S. marcescens W-8 (setting [2]) it was 0.1 µg/mL (≈ 0.195 µM).

`C=CC=NN1CCN([C@]2(C(=O)O)CN3C(=O)[C@@H](NC(=O)C(c4cc(O)c(O)cc4Cl)S(=O)(=O)O)[C@H]3S2)C1=O` (stereo partly shown) [compound 49]: the MIC in the experiment on E. coli TK-3 (TK3, 20 h) was not above 0.05 µg/mL; with S. marcescens W-8 (W8, 20 h) it was not above 0.05 µg/mL.

`O=C(O)C(C(=O)N[C@@H]1C(=O)N2C[C@@](C(=O)O)(N3CCN(NS(=O)(=O)O)C3=O)S[C@H]12)c1ccc(O)cc1` (stereo partly shown) [compound 16]: the minimal inhibitory concentration (MIC) with E. coli TK-3 (setting [1]) and with S. marcescens W-8 (setting [2]) was 12.5 µg/mL (≈ 22.9 µM) each time.

As to `NC(=O)NN1CCN([C@]2(C(=O)O)CN3C(=O)[C@@H](NC(=O)C(C(=O)O)c4cc(O)c(O)cc4Cl)[C@H]3S2)C1=O` (stereo partly shown) [compound 25], the figures for the MIC in the experiment with E. coli TK-3 (setting [1]) and in the experiment on S. marcescens W-8 (setting [2]) were 6.25 µg/mL (≈ 11.2 µM) and 12.5 µg/mL (≈ 22.4 µM), respectively.

Turning to `O=C(O)C(C(=O)N[C@@H]1C(=O)N2C[C@@](C(=O)O)(N3CCN(N=C4SCCS4)C3=O)S[C@H]12)c1ccc(O)c(O)c1` (stereo partly shown) [compound 23], the minimum inhibitory concentration (MIC) in the experiment on E. coli TK-3 (setting [1]) and with S. marcescens W-8 (setting [2]) was 3.13 µg/mL (≈ 5.36 µM) throughout.

On to `C=CC(=O)NN1CCN([C@]2(C(=O)O)CN3C(=O)[C@@H](NC(=O)C(C(=O)O)c4ccc(O)cc4)[C@H]3S2)C1=O` (stereo partly shown) [compound 45], for which the MIC in the experiment on E. coli TK-3 (TK3, 20 h) is 3.13 µg/mL (≈ 6.03 µM); against S. marcescens W-8 (W8, 20 h), 3.13 µg/mL (≈ 6.03 µM).

As to `CC(=O)Oc1cc(Cl)c(C(C(=O)N[C@@H]2C(=O)N3C[C@@](C(=O)O)(N4CCN(NC(N)=O)C4=O)S[C@H]23)S(=O)(=O)O)cc1OC(C)=O` (stereo partly shown) [compound 20], the minimal inhibitory concentration (MIC) with E. coli TK-3 (setting [1]) and with S. marcescens W-8 (setting [2]) was 0.78 µg/mL (≈ 1.15 µM) each time.

In the case of `NC(=O)NN1CCN([C@]2(C(=O)O)CN3C(=O)[C@@H](NC(=O)C(C(=O)O)c4ccc(O)c(O)c4)[C@H]3S2)C1=O` (stereo partly shown) [compound 24], the MIC came out at 25 µg/mL (≈ 47.7 µM) in the experiment on E. coli TK-3 (setting [1]) and 12.5 µg/mL (≈ 23.8 µM) in the experiment with S. marcescens W-8 (setting [2]).

Consider `NC(=O)NN1CCN([C@]2(C(=O)O)CN3C(=O)[C@@H](NC(=O)[C@@H](c4ccc(O)cc4)S(=O)(=O)O)[C@H]3S2)C1=O` [compound 40], for which the minimum inhibitory concentration (MIC) against E. coli TK-3 (TK3, 20 h) amounted to 3.13 µg/mL (≈ 5.75 µM); in the experiment on S. marcescens W-8 (W8, 20 h), 0.78 µg/mL (≈ 1.43 µM).

Regarding `O=C(O)C=NN1CCN([C@]2(C(=O)O)CN3C(=O)[C@@H](NC(=O)C(C(=O)O)c4ccccc4)[C@H]3S2)C1=O` (stereo partly shown) [compound 9], the figures for the MIC in the experiment with E. coli TK-3 (setting [1]) and in the experiment with S. marcescens W-8 (setting [2]) were 25 µg/mL (≈ 49.5 µM) and 12.5 µg/mL (≈ 24.7 µM), respectively.

On to `CCN1CCN(C(=O)NN2CCN([C@]3(C(=O)O)CN4C(=O)[C@@H](NC(=O)C(C(=O)O)c5ccccc5)[C@H]4S3)C2=O)C(=O)C1=O` (stereo partly shown) [compound 3], for which the minimum inhibitory concentration (MIC) with E. coli TK-3 (TK3, 20 h) is 0.78 µg/mL (≈ 1.26 µM); against S. marcescens W-8 (W8, 20 h) it was 0.78 µg/mL (≈ 1.26 µM).

On to `O=C(O)C(C(=O)N[C@@H]1C(=O)N2C[C@@](C(=O)O)(N3CCN(NC(=O)C(F)(F)F)C3=O)S[C@H]12)c1ccc(O)cc1` (stereo partly shown) [compound 13], for which the minimal inhibitory concentration (MIC) in the experiment on E. coli TK-3 (setting [1]) is 12.5 µg/mL (≈ 22.3 µM); in the experiment on S. marcescens W-8 (setting [2]), 3.13 µg/mL (≈ 5.57 µM).

As for `NC(=O)NN1CCN([C@]2(C(=O)O)CN3C(=O)[C@@H](NC(=O)[C@@H](c4cc(O)c(O)cc4Cl)S(=O)(=O)O)[C@H]3S2)C1=O` [compound 42], the minimum inhibitory concentration (MIC) worked out at 0.2 µg/mL (≈ 0.336 µM) with E. coli TK-3 (setting [1]) and 0.39 µg/mL (≈ 0.655 µM) against S. marcescens W-8 (W8, 20 h).

`C=CC=NN1CCN([C@]2(C(=O)O)CN3C(=O)[C@@H](NC(=O)C(C(=O)O)c4ccccc4)[C@H]3S2)C1=O` (stereo partly shown) [compound 10]: the MIC with E. coli TK-3 (setting [1]) stood at 0.1 µg/mL (≈ 0.205 µM); against S. marcescens W-8 (W8, 20 h), 0.05 µg/mL (≈ 0.103 µM).

Regarding `NC(=O)NN1CCN([C@]2(C(=O)O)CN3C(=O)[C@@H](NC(=O)C(c4ccc(N)cc4)S(=O)(=O)O)[C@H]3S2)C1=O` (stereo partly shown) [compound 30], the results for the minimal inhibitory concentration (MIC) with E. coli TK-3 (setting [1]) and in the experiment on S. marcescens W-8 (setting [2]) were 6.25 µg/mL (≈ 11.5 µM) and 1.56 µg/mL (≈ 2.87 µM), respectively.

As to `CCN1CCN(C(=O)N[C@@H](C(=O)N[C@@H]2C(=O)N3C[C@@](C(=O)O)(N4CCN(C)C4=O)S[C@H]23)c2ccccc2)C(=O)C1=O` [compound 51, Sodium salt of (3R,5R,6R)3-carboxy-6-[D-α-(4-ethyl-2,3-dioxo-1-piperazinecarboxamio)-α-phenylacetamido]-3-(3-methyl-2-oxoimidazolidin-1-yl)-7-oxo-4-tha-1-azabicyclo[3.2.0]heptane, reference compound], the MIC with E. coli TK-3 (setting [1]) and in the experiment with S. marcescens W-8 (setting [2]) was more than 200 µg/mL in each case.

Turning to `CSC(=NN1CCN([C@]2(C(=O)O)CN3C(=O)[C@@H](NC(=O)C(C(=O)O)c4ccccc4)[C@H]3S2)C1=O)SC` (stereo partly shown) [compound 6], the MIC against E. coli TK-3 (TK3, 20 h) was found to be 3.13 µg/mL (≈ 5.65 µM); in the experiment on S. marcescens W-8 (setting [2]) it was 1.56 µg/mL (≈ 2.82 µM).

As to `O=C(O)C=CC=NN1CCN([C@]2(C(=O)O)CN3C(=O)[C@@H](NC(=O)C(C(=O)O)c4ccccc4)[C@H]3S2)C1=O` (stereo partly shown) [compound 11], the values for the minimum inhibitory concentration (MIC) in the experiment with E. coli TK-3 (setting [1]) and in the experiment with S. marcescens W-8 (setting [2]) were 0.2 µg/mL (≈ 0.376 µM) and 0.1 µg/mL (≈ 0.188 µM), respectively.

For `O=C(O)C(C(=O)N[C@@H]1C(=O)N2C[C@@](C(=O)O)(N3CCN(N=CC=CCS(=O)(=O)O)C3=O)S[C@H]12)c1ccccc1` (stereo partly shown) [compound 12], the figures for the MIC in the experiment with E. coli TK-3 (setting [1]) and in the experiment on S. marcescens W-8 (setting [2]) were 0.78 µg/mL (≈ 1.34 µM) and 0.1 µg/mL (≈ 0.172 µM), respectively.

The term MIC denotes the lowest concentration that inhibits growth of the organism.
